Test results as given in US10160729B2, “Hsp70 modulators and methods for making and using the same” (Memorial Sloan Kettering Cancer Center, priority 2014, dated 2018).

What follows are compounds tested on MOLM-13 cells (assay: Caspase cleavage assay (Caspase3, 7 activation)). Conditions: Homo sapiens, 16 h treatment, caspase substrate Z-DEVD-R110, read-out: c* Concentration at which 50% of the maximum signal was achieved (caspase activation).
Format: cell-based
Protocol: Caspase3, 7 Activation. MOLM-13 cells (30,000 cells/well) were plated in black 96-well plates (Corning Cat. #3603) in 40 μL of RPMI media, and left in an incubator (37° C., 5% CO2) for up to 24 h. Cells were treated for 16 h with compounds or DMSO (control) at desired concentrations in 50 μL of media. Drugs were added in triplicate wells. Following exposure of cells to Hsp70 inhibitors, 50 μL of buffer containing 10 mM HEPES (pH 7.5), 2 mM EDTA, 0.1% CHAPS and the caspase substrate Z-DEVD-R110 at 25 μM was added to each well. Plates were incubated until the signal stabilized and then the fluorescence signal of each well was measured in an Analyst GT microplate reader. The percentage increase in apoptotic cells was calculated by comparison of the fluorescence reading obtained from treated versus control cells.

EC50 [nM] | SMILES
< 200 | COc1c(F)ccc(COc2nc(N3CCN(C)CC3)ncc2Sc2ccc(C(N)=O)c(Cl)c2)c1F [compound 112, 2-Chloro-4-((4-((2,4-difluoro-3-methoxybenzyl)oxy)-2-(4-methylpiperazin-1-yl)pyrimidin-5-yl)thio)benzamide]
1000 to 1200 | CN1CCN(c2ncc(Sc3ccc(C(N)=O)c(C(F)(F)F)c3)c(NCc3cccc(Cl)c3)n2)CC1 [compound 141, 4-((4-((3-Chlorobenzyl)amino)-2-(4-methylpiperazin-1-yl)pyrimidin-5-yl)thio)-2-(trifluoromethyl)benzamide]
400 to 1000 | [2H]C([2H])(Oc1nc(N2CCN(C)CC2)ncc1Sc1ccc(C(N)=O)cc1)c1ccccc1 [100u, 4-((4-(Benzyloxy-d2)-2-(4-methylpiperazin-1-yl)pyrimidin-5-yl)thio)benzamide]
1000 to 1200 | CN(C)c1cccc(COc2nc(-c3cc[nH]c3)ncc2Sc2ccc(C(N)=O)cc2)c1 [compound 187, 4-((4-((3-(Dimethylamino)benzyl)oxy)-2-(1H-pyrrol-3-yl)pyrimidin-5-yl)thio)benzamide]
1000 to 1200 | CN1CCN(c2ncc(Sc3ccc(C(N)=O)c(C(F)(F)F)c3)c(OCc3cccc(N(C)C)c3)n2)CC1=O [compound 345, 4-((4-((3-(Dimethylamino)benzyl)oxy)-2-(4-methyl-3-oxopiperazin-1-yl)pyrimidin-5-yl)thio)-2-(trifluoromethyl)benzamide]
≥ 1200 | COc1ncc(Sc2cnc(N3CCN(C)CC3)nc2OCc2ccccc2)cc1N [compound 63, 5-((4-(Benzyloxy)-2-(4-methylpiperazin-1-yl)pyrimidin-5-yl)thio)-2-methoxypyridin-3-amine]
400 to 1000 | CN[C@@H]1CCN(c2ncc(Sc3ccc(C(N)=O)c(Cl)c3)c(OCc3ccc(F)c(OC)c3)n2)C1 [compound 214, (R)-2-Chloro-4-((4-((4-fluoro-3-methoxybenzyl)oxy)-2-(3-(methylamino)pyrrolidin-1-yl)pyrimidin-5-yl)thio)benzamide]
200 to 400 | CN1CCN(c2ncc(Sc3ccc(C(N)=O)c(C(F)(F)F)c3)c(OCc3ccc(F)cc3F)n2)CC1 [compound 135, 4-((4-((2,4-Difluorobenzyl)oxy)-2-(4-methylpiperazin-1-yl)pyrimidin-5-yl)thio)-2-(trifluoromethyl)benzamide]
≥ 1200 | CC(Oc1nc(N2CCN(C)CC2)ncc1Sc1ccc(C(N)=O)cc1)c1cccc(N(C)C)c1 (centres unmarked) [100d, 4-((4-(1-(3-(Dimethylamino)phenyl)ethoxy)-2-(4-methylpiperazin-1-yl)pyrimidin-5-yl)thio)benzamide]
< 200 | CN1CCN(c2ncc(Sc3ccc(C(N)=O)cc3)c(OCc3cccc(NC4CC4)c3)n2)CC1 [100e, 4-((4-((3-(Cyclopropylamino)benzyl)oxy)-2-(4-methylpiperazin-1-yl)pyrimidin-5-yl)thio)benzamide]
400 to 1000 | CN1CCN(c2ncc(Sc3ccc(NC(=O)CN)cc3)c(OCc3ccccc3)n2)CC1 [compound 58, 2-Amino-N-(4-((4-(benzyloxy)-2-(4-methylpiperazin-1-yl)pyrimidin-5-yl)thio)phenyl)acetamide]
400 to 1000 | CN1CCN(c2ncc(Oc3ccc(C(N)=O)cc3)c(OCc3cccc(N(C)C)c3)n2)CC1 [compound 284, 4-((4-((3-(Dimethylamino)benzyl)oxy)-2-(4-methylpiperazin-1-yl)pyrimidin-5-yl)oxy)benzamide]
≥ 1200 | CN1CCN(c2ncc(Cc3ccc(C(N)=O)cc3)c(OCc3ccc(C#N)cc3)n2)CC1 [compound 304, 4-((4-((4-Cyanobenzyl)oxy)-2-(4-methylpiperazin-1-yl)pyrimidin-5-yl)methyl)benzamide]
200 to 400 | CN(C)[C@@H]1CCN(c2ncc(Sc3ccc(C(N)=O)cc3)c(OCc3cccc(Br)c3)n2)C1 [compound 367, (R)-4-((4-((3-Bromobenzyl)oxy)-2-(3-(dimethylamino)pyrrolidin-1-yl)pyrimidin-5-yl)thio)benzamide]
